Laboratory results from ChEMBL document CHEMBL4800729 (2021).

Columns and labels:
[1] = biological target: Serine/threonine-protein kinase PLK3 (Homo sapiens) (UniProt Q9H4B4); assay: Plk3(h) Millipore kinase panel; conditions: Compound concentration 1.0 uM
[2] = biological target: Serine/threonine-protein kinase Nek1 (Homo sapiens) (UniProt Q96PY6); assay: NEK1(h) Millipore kinase panel; conditions: Compound concentration 1.0 uM
[3] = biological target: Sodium-dependent serotonin transporter (Homo sapiens) (UniProt P31645); conditions: Compound concentration 10.0 uM
[4] = biological target: Phosphatidylinositol 4,5-bisphosphate 3-kinase catalytic subunit gamma isoform (Homo sapiens) (UniProt P48736); assay: PI3 Kinase (p120g)(h) Millipore kinase panel; conditions: Compound concentration 1.0 uM
[5] = biological target: Serine/threonine-protein kinase ULK3 (Homo sapiens) (UniProt Q6PHR2); assay: ULK3(h) Millipore kinase panel; conditions: Compound concentration 1.0 uM
[6] = biological target: NT-3 growth factor receptor (Homo sapiens) (UniProt Q16288); assay: TrkC(h) Millipore kinase panel; conditions: Compound concentration 1.0 uM
[7] = biological target: Protein-tyrosine kinase 6 (Homo sapiens) (UniProt Q13882); assay: BRK(h) Millipore kinase panel; conditions: Compound concentration 1.0 uM
[8] = biological target: Mitogen-activated protein kinase 14 (Homo sapiens) (UniProt Q16539); assay: SAPK2a(h) Millipore kinase panel; conditions: Compound concentration 1.0 uM
[9] = biological target: Fibroblast growth factor receptor 2 (Homo sapiens) (UniProt P21802); assay: FGFR2(h) Millipore kinase panel; conditions: Compound concentration 1.0 uM
[10] = biological target: Phosphatidylinositol 4-phosphate 5-kinase type-1 alpha (Homo sapiens) (UniProt Q99755); assay: PIP5K1a(h) Millipore kinase panel; conditions: Compound concentration 1.0 uM
[11] = biological target: Serine/threonine-protein kinase TBK1 (Homo sapiens) (UniProt Q9UHD2); assay: TBK1(h) Millipore kinase panel; conditions: Compound concentration 1.0 uM
[12] = biological target: Serine/threonine-protein kinase VRK2 (Homo sapiens) (UniProt Q86Y07); assay: VRK2(h) Millipore kinase panel; conditions: Compound concentration 1.0 uM
[13] = biological target: T1, Alpha-2C adrenergic receptor (Homo sapiens) (UniProt P18825); conditions: Compound concentration 10.0 uM
T1 sequence (whole entry): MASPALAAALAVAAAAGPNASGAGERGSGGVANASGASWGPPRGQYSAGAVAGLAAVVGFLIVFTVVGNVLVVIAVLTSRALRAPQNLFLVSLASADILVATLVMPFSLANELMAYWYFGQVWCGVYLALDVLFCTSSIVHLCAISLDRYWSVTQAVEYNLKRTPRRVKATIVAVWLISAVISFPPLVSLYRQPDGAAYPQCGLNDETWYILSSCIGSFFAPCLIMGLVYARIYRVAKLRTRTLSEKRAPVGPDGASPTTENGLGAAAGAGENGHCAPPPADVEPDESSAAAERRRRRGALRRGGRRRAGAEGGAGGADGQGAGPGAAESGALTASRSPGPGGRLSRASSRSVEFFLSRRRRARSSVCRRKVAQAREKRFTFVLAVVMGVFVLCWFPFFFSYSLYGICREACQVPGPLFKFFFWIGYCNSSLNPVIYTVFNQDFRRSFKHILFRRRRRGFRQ

[14] = biological target: Calcium/calmodulin-dependent protein kinase type 1D (Homo sapiens) (UniProt Q8IU85); assay: CaMKIdelta(h) Millipore kinase panel; conditions: Compound concentration 1.0 uM
[15] = biological target: MAP kinase-activated protein kinase 5 (Homo sapiens) (UniProt Q8IW41); assay: PRAK(h) Millipore kinase panel; conditions: Compound concentration 1.0 uM
[16] = biological target: Discoidin domain-containing receptor 2 (Homo sapiens) (UniProt Q16832); assay: DDR2(h) Millipore kinase panel; conditions: Compound concentration 1.0 uM
[17] = biological target: Serine/threonine-protein kinase DCLK1 (Homo sapiens) (UniProt O15075); assay: DCAMKL1(h) Millipore kinase panel; conditions: Compound concentration 1.0 uM
[18] = biological target: Insulin receptor (Homo sapiens) (UniProt P06213); conditions: Rattus norvegicus; Compound concentration 10.0 uM
[19] = biological target: Mitogen-activated protein kinase kinase kinase 7 (Homo sapiens) (UniProt O43318); assay: TAK1(h) Millipore kinase panel; conditions: Compound concentration 1.0 uM
[20] = biological target: 5-hydroxytryptamine receptor 1B (Homo sapiens, UniProt P28222); conditions: Compound concentration 10.0 uM
[21] = biological target: Serine/threonine-protein kinase PLK1 (Homo sapiens) (UniProt P53350); assay: Plk1(h) Millipore kinase panel; conditions: Compound concentration 1.0 uM
[22] = biological target: GABA-A receptor; anion channel (Rattus norvegicus) (UniProt O09028+P15431+P18506+P18508+P19969+P20236+P23574+P23576+P28471+P28473+P30191+P62813+P63079+P63138+Q91ZM7+Q9ES14); conditions: Compound concentration 10.0 uM
[23] = biological target: Tyrosine-protein kinase ABL1 (Homo sapiens) (UniProt P00519); assay: Abl(h) Millipore kinase panel; conditions: Compound concentration 1.0 uM
[24] = biological target: Serine/threonine-protein kinase SBK1 (Homo sapiens) (UniProt Q52WX2); assay: SBK1(h) Millipore kinase panel; conditions: Compound concentration 1.0 uM
[25] = biological target: Tyrosine-protein kinase Yes (Homo sapiens) (UniProt P07947); assay: Yes(h) Millipore kinase panel; conditions: Compound concentration 1.0 uM
[26] = biological target: Homeodomain-interacting protein kinase 1 (Homo sapiens) (UniProt Q86Z02); assay: HIPK1(h) Millipore kinase panel; conditions: Compound concentration 1.0 uM
[27] = biological target: G protein-coupled receptor kinase 5 (Homo sapiens) (UniProt P34947); assay: GRK5(h) Millipore kinase panel; conditions: Compound concentration 1.0 uM
[28] = biological target: Activin receptor type-1-like (Homo sapiens) (UniProt P37023); assay: ALK1(h) Millipore kinase panel; conditions: Compound concentration 1.0 uM
[29] = biological target: Serine/threonine-protein kinase PAK 3 (Homo sapiens) (UniProt O75914); assay: PAK3(h) Millipore kinase panel; conditions: Compound concentration 1.0 uM
[30] = biological target: Histamine H3 receptor (Homo sapiens) (UniProt Q9Y5N1); conditions: Compound concentration 10.0 uM
[31] = biological target: Casein kinase I isoform gamma-1 (Homo sapiens) (UniProt Q9HCP0); assay: CK1gamma1(h) Millipore kinase panel; conditions: Compound concentration 1.0 uM
[32] = biological target: Dual specificity tyrosine-phosphorylation-regulated kinase 1A (Homo sapiens) (UniProt Q13627); assay: DYRK1A(h) Millipore kinase panel; conditions: Compound concentration 1.0 uM
[33] = biological target: Serine/threonine-protein kinase 24 (Homo sapiens) (UniProt Q9Y6E0); assay: MST3(h) Millipore kinase panel; conditions: Compound concentration 1.0 uM
ATR/ATRIP (Homo sapiens) = ATR/ATRIP (Homo sapiens) (UniProt Q13535+Q8WXE1); assay: ATR/ATRIP(h) Millipore kinase panel; type: protein-complex assay; conditions: Compound concentration 1.0 uM
[34] = biological target: Endothelin receptor type B (Homo sapiens) (UniProt P24530); conditions: Compound concentration 10.0 uM
[35] = biological target: Serine/threonine-protein kinase Sgk1 (Homo sapiens) (UniProt O00141); assay: SGK(h) Millipore kinase panel; conditions: Compound concentration 1.0 uM
[36] = biological target: Vascular endothelial growth factor receptor 2 (Homo sapiens) (UniProt P35968); assay: KDR(h) Millipore kinase panel; conditions: Compound concentration 1.0 uM
[37] = biological target: Tyrosine-protein kinase JAK1 (Homo sapiens) (UniProt P23458); assay: JAK1(h) Millipore kinase panel; conditions: Compound concentration 1.0 uM
[38] = biological target: GABA-A receptor; anion channel; assay: GPCRScan assay: inhibition of GABAA/BZP; type: protein-complex assay, Rattus norvegicus; design: radioligand conc. used [nm] 0.6 – 4.0, parental cells brain tissue
[39] = biological target: eIF-2-alpha kinase GCN2 (Homo sapiens) (UniProt Q9P2K8); assay: GCN2(h) Millipore kinase panel; conditions: Compound concentration 1.0 uM
[40] = biological target: Activin receptor type-1 (Homo sapiens) (UniProt Q04771); assay: ALK2(h) Millipore kinase panel; conditions: Compound concentration 1.0 uM

Chain of Tyrosine-protein kinase JAK1 (Homo sapiens) (P23458 whole entry): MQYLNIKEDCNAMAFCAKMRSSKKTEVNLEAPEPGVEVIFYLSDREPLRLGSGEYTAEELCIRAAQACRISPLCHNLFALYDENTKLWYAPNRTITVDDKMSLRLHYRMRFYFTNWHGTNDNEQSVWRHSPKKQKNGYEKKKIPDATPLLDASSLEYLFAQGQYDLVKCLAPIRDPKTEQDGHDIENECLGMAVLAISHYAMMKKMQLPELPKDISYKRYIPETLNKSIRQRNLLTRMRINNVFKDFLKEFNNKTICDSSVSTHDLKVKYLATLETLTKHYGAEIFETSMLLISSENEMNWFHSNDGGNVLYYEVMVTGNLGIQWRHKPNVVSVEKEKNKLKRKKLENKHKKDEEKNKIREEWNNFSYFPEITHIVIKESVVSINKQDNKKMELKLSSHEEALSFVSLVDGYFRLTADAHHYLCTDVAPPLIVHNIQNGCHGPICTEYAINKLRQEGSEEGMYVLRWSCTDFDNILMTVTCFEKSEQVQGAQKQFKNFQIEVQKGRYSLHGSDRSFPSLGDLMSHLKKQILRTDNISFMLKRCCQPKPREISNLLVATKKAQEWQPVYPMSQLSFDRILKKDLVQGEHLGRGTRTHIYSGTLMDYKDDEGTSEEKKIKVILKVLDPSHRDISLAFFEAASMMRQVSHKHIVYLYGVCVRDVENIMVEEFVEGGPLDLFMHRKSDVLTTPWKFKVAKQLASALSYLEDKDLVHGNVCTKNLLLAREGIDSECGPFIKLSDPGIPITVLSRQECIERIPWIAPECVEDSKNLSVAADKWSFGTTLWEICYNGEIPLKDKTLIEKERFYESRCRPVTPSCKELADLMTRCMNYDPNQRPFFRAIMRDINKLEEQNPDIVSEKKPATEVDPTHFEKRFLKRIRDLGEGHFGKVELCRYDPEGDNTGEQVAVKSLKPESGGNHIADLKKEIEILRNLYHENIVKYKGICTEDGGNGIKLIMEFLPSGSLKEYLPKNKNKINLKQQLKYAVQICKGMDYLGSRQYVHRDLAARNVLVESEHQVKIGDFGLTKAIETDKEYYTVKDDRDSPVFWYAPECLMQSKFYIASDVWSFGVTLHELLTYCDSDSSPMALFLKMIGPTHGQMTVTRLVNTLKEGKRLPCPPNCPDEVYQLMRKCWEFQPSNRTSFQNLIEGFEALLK
Chain of Casein kinase I isoform gamma-1 (Homo sapiens) (Q9HCP0 whole entry, looked up, canonical isoform): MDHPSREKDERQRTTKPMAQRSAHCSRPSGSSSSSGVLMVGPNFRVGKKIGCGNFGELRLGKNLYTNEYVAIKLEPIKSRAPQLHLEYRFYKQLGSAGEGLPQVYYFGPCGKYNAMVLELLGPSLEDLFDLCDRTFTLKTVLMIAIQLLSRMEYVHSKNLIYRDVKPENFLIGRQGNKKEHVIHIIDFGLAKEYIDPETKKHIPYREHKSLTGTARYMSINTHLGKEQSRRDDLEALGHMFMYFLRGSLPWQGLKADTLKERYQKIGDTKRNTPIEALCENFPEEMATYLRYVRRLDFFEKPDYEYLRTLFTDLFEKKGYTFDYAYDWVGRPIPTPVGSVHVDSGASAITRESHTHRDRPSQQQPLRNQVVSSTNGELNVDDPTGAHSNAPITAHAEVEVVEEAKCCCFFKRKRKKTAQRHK
Chain of Serine/threonine-protein kinase PLK3 (Homo sapiens) (Q9H4B4 whole entry, looked up): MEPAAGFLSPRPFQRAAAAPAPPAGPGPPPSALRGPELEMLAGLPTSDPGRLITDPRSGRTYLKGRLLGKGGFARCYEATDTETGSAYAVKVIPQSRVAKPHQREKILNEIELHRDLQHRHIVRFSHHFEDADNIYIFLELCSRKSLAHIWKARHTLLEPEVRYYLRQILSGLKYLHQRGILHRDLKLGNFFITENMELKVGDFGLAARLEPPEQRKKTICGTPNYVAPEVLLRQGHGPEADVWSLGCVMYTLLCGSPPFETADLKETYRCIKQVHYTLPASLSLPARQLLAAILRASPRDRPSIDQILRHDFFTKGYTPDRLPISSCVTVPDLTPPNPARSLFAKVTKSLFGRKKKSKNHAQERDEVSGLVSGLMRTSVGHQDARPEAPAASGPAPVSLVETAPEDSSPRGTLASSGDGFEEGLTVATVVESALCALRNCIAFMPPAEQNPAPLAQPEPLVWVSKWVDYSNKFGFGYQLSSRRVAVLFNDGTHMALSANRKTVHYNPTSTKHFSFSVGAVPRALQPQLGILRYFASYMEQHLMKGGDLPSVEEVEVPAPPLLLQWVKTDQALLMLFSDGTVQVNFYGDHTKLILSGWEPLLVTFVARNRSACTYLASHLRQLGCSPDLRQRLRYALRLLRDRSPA
Chain of Serine/threonine-protein kinase PLK1 (Homo sapiens) (P53350 whole entry): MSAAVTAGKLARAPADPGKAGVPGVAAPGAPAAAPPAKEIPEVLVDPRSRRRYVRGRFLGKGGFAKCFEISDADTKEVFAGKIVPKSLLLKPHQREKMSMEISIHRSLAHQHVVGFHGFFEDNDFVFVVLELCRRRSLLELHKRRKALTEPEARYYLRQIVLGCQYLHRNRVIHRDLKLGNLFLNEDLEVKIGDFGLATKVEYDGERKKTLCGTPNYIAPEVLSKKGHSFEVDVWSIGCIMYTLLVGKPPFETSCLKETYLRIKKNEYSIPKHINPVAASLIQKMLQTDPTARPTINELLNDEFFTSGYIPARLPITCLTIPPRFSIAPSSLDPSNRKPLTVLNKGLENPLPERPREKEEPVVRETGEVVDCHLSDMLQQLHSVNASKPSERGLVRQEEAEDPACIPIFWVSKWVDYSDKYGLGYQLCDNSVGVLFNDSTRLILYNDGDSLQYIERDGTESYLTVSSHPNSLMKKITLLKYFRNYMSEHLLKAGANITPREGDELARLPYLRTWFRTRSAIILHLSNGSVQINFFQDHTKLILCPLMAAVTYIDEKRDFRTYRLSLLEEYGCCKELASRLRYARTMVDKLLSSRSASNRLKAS
Chain of 5-hydroxytryptamine receptor 1B (P28222 whole entry): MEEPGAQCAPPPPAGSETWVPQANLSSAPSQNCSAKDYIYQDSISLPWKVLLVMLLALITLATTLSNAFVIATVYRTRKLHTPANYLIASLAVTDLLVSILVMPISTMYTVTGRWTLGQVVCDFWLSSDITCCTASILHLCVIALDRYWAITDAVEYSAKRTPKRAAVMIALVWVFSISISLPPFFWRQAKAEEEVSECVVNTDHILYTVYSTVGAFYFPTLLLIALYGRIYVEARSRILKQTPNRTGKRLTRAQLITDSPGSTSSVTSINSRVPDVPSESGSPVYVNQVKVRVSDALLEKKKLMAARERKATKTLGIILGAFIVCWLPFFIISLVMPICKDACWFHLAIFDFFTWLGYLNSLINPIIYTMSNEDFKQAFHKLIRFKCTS
Chain of Serine/threonine-protein kinase Nek1 (Homo sapiens) (Q96PY6 whole entry): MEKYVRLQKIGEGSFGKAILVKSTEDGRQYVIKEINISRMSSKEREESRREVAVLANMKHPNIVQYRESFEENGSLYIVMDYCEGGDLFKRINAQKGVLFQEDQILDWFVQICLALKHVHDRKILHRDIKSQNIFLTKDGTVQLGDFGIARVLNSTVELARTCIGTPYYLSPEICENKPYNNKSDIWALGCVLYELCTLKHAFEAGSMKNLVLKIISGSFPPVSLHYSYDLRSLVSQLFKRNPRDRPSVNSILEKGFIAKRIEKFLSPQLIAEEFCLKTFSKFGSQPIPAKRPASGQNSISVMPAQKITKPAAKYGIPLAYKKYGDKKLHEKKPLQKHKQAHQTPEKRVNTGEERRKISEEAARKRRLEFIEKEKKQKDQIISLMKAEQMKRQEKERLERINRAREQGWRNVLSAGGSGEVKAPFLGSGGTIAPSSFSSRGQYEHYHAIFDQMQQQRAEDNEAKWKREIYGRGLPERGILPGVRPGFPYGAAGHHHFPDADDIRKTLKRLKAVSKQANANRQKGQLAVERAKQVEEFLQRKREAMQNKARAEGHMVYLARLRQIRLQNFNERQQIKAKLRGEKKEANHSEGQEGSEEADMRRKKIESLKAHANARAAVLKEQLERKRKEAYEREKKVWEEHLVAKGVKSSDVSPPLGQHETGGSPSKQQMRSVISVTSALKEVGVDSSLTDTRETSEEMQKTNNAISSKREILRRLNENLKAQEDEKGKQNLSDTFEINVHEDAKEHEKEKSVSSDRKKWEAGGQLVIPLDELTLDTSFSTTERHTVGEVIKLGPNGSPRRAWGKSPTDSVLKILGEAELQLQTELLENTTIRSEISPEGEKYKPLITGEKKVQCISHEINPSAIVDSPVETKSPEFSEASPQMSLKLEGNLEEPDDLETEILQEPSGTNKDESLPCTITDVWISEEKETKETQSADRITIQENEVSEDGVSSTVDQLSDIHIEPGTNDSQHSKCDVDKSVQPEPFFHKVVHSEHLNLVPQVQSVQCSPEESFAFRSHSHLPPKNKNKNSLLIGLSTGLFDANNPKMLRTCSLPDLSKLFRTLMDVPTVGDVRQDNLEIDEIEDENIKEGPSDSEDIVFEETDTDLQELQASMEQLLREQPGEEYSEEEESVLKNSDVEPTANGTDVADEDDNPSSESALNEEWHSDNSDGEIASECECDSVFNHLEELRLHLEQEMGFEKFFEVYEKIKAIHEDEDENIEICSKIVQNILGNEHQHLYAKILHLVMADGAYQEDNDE
Chain of Serine/threonine-protein kinase ULK3 (Homo sapiens) (Q6PHR2 whole entry): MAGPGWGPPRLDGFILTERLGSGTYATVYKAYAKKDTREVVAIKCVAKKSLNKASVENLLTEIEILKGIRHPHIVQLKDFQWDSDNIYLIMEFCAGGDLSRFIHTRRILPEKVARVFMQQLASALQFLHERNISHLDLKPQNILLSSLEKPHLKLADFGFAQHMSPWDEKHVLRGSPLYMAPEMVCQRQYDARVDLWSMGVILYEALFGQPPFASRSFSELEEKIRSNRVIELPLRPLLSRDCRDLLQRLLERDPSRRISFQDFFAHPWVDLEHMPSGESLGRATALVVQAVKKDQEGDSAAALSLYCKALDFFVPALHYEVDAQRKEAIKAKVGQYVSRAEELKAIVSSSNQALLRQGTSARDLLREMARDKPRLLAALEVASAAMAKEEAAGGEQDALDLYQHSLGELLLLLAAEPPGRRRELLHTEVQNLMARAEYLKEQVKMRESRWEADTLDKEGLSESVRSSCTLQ

Compound `CC[C@@H](Nc1c(C#N)c(-c2ccc(-c3cccc(C)c3F)cc2)nc2cnccc12)C(=O)O` [BAY-091] has an inhibition [1] of -7.76%, an inhibition [2] of 24.4% and an inhibition [3] of 10%. It also gave an inhibition [4] of 14.4%, an inhibition [5] of 0.33% and an inhibition [6] of 14.8%. For the same compound, the inhibition [7] was 8.07%, the inhibition [8] was 2.76% and the inhibition [9] was 9.63%. It also gave an inhibition [10] of 10%, an inhibition [11] of 8.44% and an inhibition [12] of 4.1%. For the same compound, the inhibition [13] was 4%, the inhibition [14] was 4.68% and the inhibition [15] was 23.6%. For the same compound, the inhibition [16] was 16.3%, the inhibition [17] was 13% and the inhibition [18] was -1%. For the same compound, the inhibition [19] was 7.89%, the inhibition [20] was 11.3% and the inhibition [21] was 4.29%. It also gave an inhibition [22] of 12%, an inhibition [23] of 12.1% and an inhibition [24] of 4.02%. For the same compound, the inhibition [25] was -3.76%, the inhibition [26] was 3.6% and the inhibition [27] was -3.49%. It also gave an inhibition [28] of -6.17%, an inhibition [29] of 4.13% and an inhibition [30] of 3%. For the same compound, the inhibition [31] was 8.17%, the inhibition [32] was 4.22% and the inhibition [33] was 1.03%. It also gave an inhibition (ATR/ATRIP (Homo sapiens)) of 16.2%, an inhibition [34] of 1% and an inhibition [35] of -6.56%. For the same compound, the inhibition [36] was 50.1%, the inhibition [37] was -0.44% and the Ki [38] was 6.83 µM. The inhibition [39] was -3.21% and the inhibition [40] was 5.14%.
